According to patent US6720344B2, “Methods and compositions for stimulating osteoblast proliferation or treating malignant cell proliferation and methods for selecting osteoblast proliferation stimulants” (The Board of Regents of the University of Texas System, priority 1996, dated 2004):

Key:
BMP-2 promoter = BMP-2 promoter luciferase assay in 2T3 cells (Example 1); type: cell-based, murine
Text: Such activity may be determined using any one of a number of methods known to the skilled artisan, such as by using the luciferase promoter assay described in Example 1. […] Since BMP-2 luciferase promoter constructs were transfected into immortalized murine osteoblasts (2T3 cells), the stimulation of luciferase activity is reasonably correlated to a osteoblast proliferation stimulation activity as recognized by those of ordinary skill in the art.
This technique has been described in the scientific literature [Ghosh-Choudhury, N.; Windle, J; J.; Koop, B. A.; Harris, M. A.; Guerrero, D. L.; Wozney, J. M.; Mundy, G. R.; Harris, S. E.; “Immortalized Murine Osteoblasts Derived from BMP 2-T-Antigen Expressing Transgenic Mice” Endocrinology (1996) 137, 331-339]. […]
Immortalized murine osteoblasts (2T3 cells) containing a bone morphogenetic protein 2 (BMP-2) promoter fragment are isolated from the calvaria of transgenic mice and cloned. […] Employing this BMP-2 promoter assay as an additional screening technique, the ED50 of compounds that stimulate luciferase activity, and, by inference, osteoblast proliferation, can be further assessed. […]
The transfection is carried out by the calcium phosphate precipitation technique. […] Luciferase enzyme activity can be measured in 15 different clonal cell lines. […] Luciferase activity is measured using a kit from Promega and a luminometer.

| Structure (SMILES) | EC50 (BMP-2 promoter; assay conditions of Example 1, stimulation of luciferase activity, read-out: ED50 in the promoter assay) [µM] | production of luciferase action / BMP-2 promoter activity, in words (BMP-2 promoter; assay for BMP-2 promoter activity, compared to control) | melting point [°C] |
| --- | --- | --- | --- |
| COc1ccc(C(=O)Nc2nc3ccccc3s2)cc1 [2-(4-methoxybenzoyamino)-1,3-benzthiazole, reference compound] | ~0.1 |  |  |
| CC(C)Oc1ccc2c(c1)Cc1ccccc1C2=O [anthrone, 3-i-propoxyanthrone] |  | reduced pharmacological activity | 123 to 124 |
